According to patent US12421212B2, “Substituted benzenecarboxamides as IL-17A modulators” (DiCE Alpha, Inc., priority 2019, dated 2025):

Target: T1, IL-17A/A (Homo sapiens, UniProt Q16552)
T1 construct: purchased Genscript Z03228
T1 sequence (Q16552 24-155): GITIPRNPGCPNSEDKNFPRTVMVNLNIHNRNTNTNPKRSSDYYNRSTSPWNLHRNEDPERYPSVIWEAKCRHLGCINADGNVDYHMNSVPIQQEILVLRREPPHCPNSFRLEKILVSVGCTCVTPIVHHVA
Assay: IL-17A/A HEK-Blue Cell Assay
Assay type: cell-based
Details: HEK-Blue IL-17A reporter cell line, SEAP readout at A630, 20 hours incubation with IL-17A/A, top concentration 10 uM, 1 uM or 0.3 uM; for IC50: read-out: IL-17A/A inhibition (pIC50) (converted)

Row | Compound | IC50 | IL-17A/A inhibition (pIC50)
1 | CCC(=O)N[C@H](Cc1ccc(NC(=O)[C@@H](NC(=O)c2ccnn2CC)C2CCCCC2)c(F)c1)C(=O)N1CCNC2(CC2)C1 [Compound 690] | 100 to 10000 nM | 
2 | CCc1nonc1C(=O)N[C@H](C(=O)Nc1ccc([C@H](C)[C@@H](NC(=O)N(C)C2CC2)C(=O)N2CCN(C)[C@@H](C)C2)cc1F)[C@H]1CC[C@H](C)CC1 [Compound 509] | 10 to 100 nM | 
3 | CC(C)n1nccc1C(=O)N[C@H](C(=O)Nc1ccc([C@H](C)[C@@H](NC(=O)c2cnns2)C(=O)N2CCN(C)CC2)cc1F)[C@H]1CC[C@H](C)CC1 [Compound 333] | < 10 nM | 
4 | CCn1nccc1C(=O)N[C@H](C(=O)Nc1ccc([C@H](C)[C@@H](NC(=O)c2c[nH]c(=O)[nH]2)C(=O)N2CCN(C)CC2)cc1F)C1CCCCC1 [Compound 681] | 100 to 10000 nM | 
5 | CCC(=O)N[C@@H](C(=O)N1CCN(C)CC1)[C@@H](C)c1ccc(NC(=O)C(NC(=O)c2nonc2CC)C(C)C2CCC(F)(F)CC2)c(F)c1 (stereo partly shown) [Compound 607] | 10 to 100 nM | 
6 | CCn1nccc1C(=O)N[C@H](C(=O)Nc1ccc([C@H](C)[C@@H](NC(=O)C(F)(F)CC)C(=O)N2CCN(C)[C@H](C)C2)cc1F)[C@H]1CC[C@H](C)CC1 [Compound 481] | < 10 nM | 
7 | CCn1nccc1C(=O)N[C@H](C(=O)Nc1ccc([C@H](C)[C@@H](NC(=O)c2cn[nH]c2)C(=O)N2CCN(C)CC2)cc1F)C1CCCCC1 [Compound 677] | 100 to 10000 nM | 
8 | CCC(=O)N[C@@H](C(=O)N[C@@H](C)C1CC1)[C@@H](C)c1ccc(NC(=O)[C@@H](NC(=O)c2ccnn2CC)C2CCCCCC2)c(F)c1 [Compound 537] | 10 to 100 nM | 
9 | CCc1nonc1C(=O)N[C@H](C(=O)Nc1ccc([C@H](C)[C@@H](NC(=O)C(F)(F)CC)C(=O)N2CCN(C)[C@H](C)C2)cc1F)[C@H]1CC[C@H](C)CC1 [Compound 504] | < 10 nM | 
10 | CCC(=O)N[C@@H](C(=O)N1CCOCC1)[C@@H](C)c1ccc(NC(=O)[C@@H](NC(=O)c2ccnn2CC)C2CCCCC2)c(F)c1 [Compound 359] | 10 to 100 nM | 
11 | CCC(=O)N[C@@H](C(=O)N1C[C@H](C)N(C(C)C)[C@@H](C)C1)[C@@H](C)c1ccc(NC(=O)[C@@H](NC(=O)c2nonc2CC)[C@H]2CC[C@H](C)CC2)c(F)c1 [Compound 449] |  | A (compounds having a pIC50 of greater than or equal 8 as A)
12 | CCC(=O)N[C@H](Cc1ccc(NC(=O)[C@@H](NC(=O)c2ccc(C(=O)NC)s2)C2CCCCC2)c(F)c1)C(=O)N1CCN(C)CC1 [Compound 779] |  | X1a (compounds were evaluated up to 10 uM and did not inhibit activity by >80%, however they showed some activity at 10 uM (less than 80% and more than 20%))
13 | CCC(=O)N[C@H](Cc1ccc(NC(=O)[C@@H](NC(=O)C2(c3ccccc3)CC2)C2CCCCC2)c(F)c1)C(=O)N1CCN(C)CC1 [Compound 710] |  | X2b (compounds were evaluated up to 1 uM and inhibited activity at 1 uM by less than 20%)
14 | CCC(=O)N[C@H](Cc1ccc(NC(=O)[C@H](Cc2cc(C)cc(C)c2)NC(=O)c2ccnn2CC)c(F)c1)C(=O)N1CCN(C)CC1 [Compound 727] |  | X2b (compounds were evaluated up to 1 uM and inhibited activity at 1 uM by less than 20%)
15 | CCn1nccc1C(=O)N[C@H](C(=O)Nc1ccc([C@H](C)[C@@H](NC(=O)c2csc(N)n2)C(=O)N2CCN(C)CC2)cc1F)C1CCCCC1 [Compound 695] | 100 to 10000 nM | 
16 | CCc1nonc1C(=O)N[C@H](C(=O)Nc1ccc([C@H](C)[C@@H](NC(=O)N(C)C2CCC2)C(=O)N2CCN(C)CC2)cc1F)[C@H]1CC[C@H](C)CC1 [Compound 516] | < 10 nM | 
17 | CCc1nonc1C(=O)N[C@H](C(=O)Nc1ccc([C@H](C)[C@@H](NC(=O)c2ncccc2OC)C(=O)N2CCN(C)CC2)cc1F)[C@H]1CC[C@H](C)CC1 [Compound 578] |  | X3b (compounds were evaluated up to 0.3 uM and inhibited activity at 0.3 uM by less than 20%)
18 | CCC(=O)N[C@@H](C(=O)NCC1CCC1)[C@@H](C)c1ccc(NC(=O)[C@@H](NC(=O)c2ccnn2CC)[C@H]2CC[C@H](C)CC2)c(F)c1 [Compound 345] | 10 to 100 nM | 
19 | CCC(=O)N[C@H](Cc1ccc(NC(=O)[C@@H](NC(=O)c2ccnn2CC)C2CCCCC2)c(F)c1)C(=O)N1CCNCC1 [Compound 746] |  | X2b (compounds were evaluated up to 1 uM and inhibited activity at 1 uM by less than 20%)
20 | CCn1nccc1C(=O)N[C@H](C(=O)Nc1ccc([C@H](C)[C@@H](NC(=O)c2cnnn2C)C(=O)N2CCN(C)CC2)cc1F)C1CCCCC1 [Compound 306] | 10 to 100 nM | 
21 | CCC(=O)N[C@@H](C(=O)N1CCN(C)CC1)[C@@H](C)c1ccc(NC(=O)C(NC(=O)c2nonc2CC)C(C)C2CCC(C)CC2)c(F)c1 (single isomer, unassigned) [Compound 584] |  | X2b (compounds were evaluated up to 1 uM and inhibited activity at 1 uM by less than 20%)
22 | CCc1nonc1C(=O)N[C@H](C(=O)Nc1ccc([C@H](C)[C@@H](NC(=O)C(C)(F)F)C(=O)N2CCN(C)CC2)cc1F)[C@H]1CC[C@H](C)CC1 [Compound 501] | 10 to 100 nM | 
23 | CCc1nonc1C(=O)N[C@H](C(=O)Nc1ccc([C@H](C)C(NC(=O)C(F)C2CC2)C(=O)N2CCN(C)[C@H](C)C2)cc1F)[C@H]1CC[C@H](C)CC1 (single isomer, unassigned) [Compound 600] | < 10 nM | 
24 | CCC(=O)N[C@@H](C(=O)O)[C@@H](C)c1ccc(NC(=O)[C@@H](NC(=O)c2ccnn2CC)[C@H]2CC[C@H](C)CC2)c(F)c1 [Compound 661] |  | X3b (compounds were evaluated up to 0.3 uM and inhibited activity at 0.3 uM by less than 20%)
25 | CCC(=O)N[C@@H](C(=O)N1CCN(C)CC1)[C@@H](C)c1ccc(NC(=O)[C@@H](NC(=O)C(F)(F)C2CCN(C)CC2)C2CCCCC2)c(F)c1 [Compound 734] |  | X2a (compounds were evaluated up to 1 uM and did not inhibit activity by >80%, however they showed some activity at 1 uM (less than 80% and more than 20%))
26 | CCn1nccc1C(=O)N[C@H](C(=O)Nc1ccc([C@H](C)[C@@H](NC(=O)NC(C)C)C(=O)N2CCN(C)CC2)cc1F)C1CCCCCC1 [Compound 327] | 10 to 100 nM | 
27 | CCC(=O)N[C@@H](C(=O)N1CCN(C)CC1)[C@@H](C)c1ccc(NC(=O)[C@H](NC(=O)c2ccnn2CC)[C@H]2CC[C@H](C)CC2)c(F)c1 [Compound 541] |  | X3b (compounds were evaluated up to 0.3 uM and inhibited activity at 0.3 uM by less than 20%)
28 | CCC(=O)N[C@@H](C(=O)N1CCN(C)CC1)[C@@H](C)c1ccc(NC(=O)C(NC(=O)c2ccnn2CC)C(C)c2ccccc2Cl)c(F)c1 (stereo partly shown) [Compound 519] |  | X3a (compounds were evaluated up to 0.3 uM and did not inhibit activity by >80%, however they showed some activity at 0.3 uM (less than 80% and more than 20%))

More lines, main results first:

Row | IC50 | Compound | IL-17A/A inhibition (pIC50)
29 | < 10 nM | CCC(=O)N[C@@H](C(=O)N1CCN(C)CC1)[C@@H](C)c1ccc(NC(=O)[C@@H](NC(=O)C(F)(F)c2cccc(C#N)c2)C2CCCCC2)c(F)c1 [Compound 230] | 
30 | 100 to 10000 nM | CCC(=O)N[C@H](Cc1ccc(NC(=O)[C@@H](NC(=O)C(F)(F)c2ccc(C)cc2)C2CCCCC2)c(F)c1)C(=O)N1CCN(C)CC1 [Compound 210] | 
31 | 10 to 100 nM | CCC(=O)N[C@@H](C(=O)N1CCN(C)CC1)[C@@H](C)c1ccc(NC(=O)[C@@H](NC(=O)c2ccnn2CC)C2CCCCC2)c(F)c1 [Compound 229] | 
32 | 100 to 10000 nM | CCC(=O)N[C@@H](C(=O)N1CCN(C)CC1)[C@@H](C)c1ccc(NC(=O)C(NC(=O)c2ccnn2CC)C(CC)c2ccc(F)cc2)c(F)c1 (single isomer, unassigned) [Compound 554] | 
33 | 100 to 10000 nM | CCC(=O)N[C@H](Cc1ccc(NC(=O)[C@@H](NC(=O)c2ccnn2CC)C2CCCCC2)c(F)c1)C(=O)N1CCCN(C)CC1 [Compound 760] | 
34 | < 10 nM | CCC(=O)N[C@@H](C(=O)N1CCN(C)C[C@H]1C)[C@@H](C)c1ccc(NC(=O)[C@@H](NC(=O)c2ccnn2CC)[C@H]2CC[C@H](C)CC2)c(F)c1 [Compound 430] | 
35 | 10 to 100 nM | CCC(=O)N[C@@H](C(=O)N1CCC(Oc2ccccc2)CC1)[C@@H](C)c1ccc(NC(=O)[C@@H](NC(=O)c2ccnn2CC)[C@H]2CC[C@H](C)CC2)c(F)c1 [Compound 372] | 
36 | < 10 nM | CCC(=O)N[C@@H](C(=O)N1CCN(Cc2ccccn2)CC1)[C@@H](C)c1ccc(NC(=O)[C@@H](NC(=O)c2ccnn2CC)C2CCCCCC2)c(F)c1 [Compound 348] | 
37 | < 10 nM | CCn1nccc1C(=O)N[C@H](C(=O)Nc1ccc([C@H](C)[C@@H](NC(=O)c2ccnn2C2CCOCC2)C(=O)N2CCC(C)(O)CC2)cc1F)[C@H]1CC[C@H](C)CC1 [Compound 417] | 
38 | 10 to 100 nM | CCn1nccc1C(=O)N[C@H](C(=O)Nc1ccc([C@H](C)[C@@H](NC(=O)[C@@H]2CCCO2)C(=O)N2CCN(C)CC2)cc1F)[C@H]1CC[C@H](C)CC1 [Compound 477] | 
39 | 100 to 10000 nM | CCC(=O)N[C@@H](C(=O)N1CCN(C)CC1)[C@@H](C)c1ccc(NC(=O)[C@@H](NC(=O)C(F)(F)C2CCN(C(C)=O)CC2)C2CCCCC2)c(F)c1 [Compound 653] | 
40 | 10 to 100 nM | CCC(=O)N[C@@H](C(=O)N1CCN(C)CC1)[C@@H](C)c1ccc(NC(=O)C(NC(=O)c2ccnn2C(C)C)[C@@H](C)c2ccccc2)c(F)c1 (stereo partly shown) [Compound 291] | 
41 | 10 to 100 nM | CCC(=O)N[C@@H](C(=O)N1CCN(C)CC1)[C@@H](C)c1ccc(NC(=O)[C@@H](NC(=O)c2cccn2CC)[C@H]2CC[C@H](C)CC2)c(F)c1 [Compound 280] | 
42 | < 10 nM | CCC(=O)N[C@@H](C(=O)N1CCN(C)C(C)(C)C1)[C@@H](C)c1ccc(NC(=O)[C@@H](NC(=O)c2nonc2CC)[C@H]2CC[C@H](C)CC2)c(F)c1 [Compound 464] | 
43 | 10 to 100 nM | CCC(=O)N[C@@H](C(=O)N1CCN(C)CC1)[C@@H](C)c1ccc(NC(=O)[C@@H](NC(=O)c2ccnn2CC)[C@H](C)[C@H]2CC[C@H](C)CC2)c(F)c1 [Compound 587] | 
